A short description of series [1]: Plasma drug concentrations (pyrimethamine UPLC-MS/MS, VPA assay, unbound dolutegravir) in trial participants. The series is classed as in vivo, human. The settings on record: human, plasma, 6 hours, read-out: Median unbound dolutegravir concentration. As for the experimental part: Self-reported adherence was assessed at each study visit, and empty pill strips were collected after the 2-week intervention phase. […] A gradient (0.3 ml/min) with two eluents was used (A: 2 mM ammonium acetate + 0.1% formic acid in water; B: 2 mM ammonium acetate + 0.1% formic acid in methanol). […] For measurement validation, we performed linearity, correctness, LOD and lower LOQ, repeatability, reproducibility, measurement uncertainty, robustness, and carryover. […] Unbound dolutegravir plasma concentrations were quantified with a validated UPLC-MS/MS bioquantification method as previously described ([61]).

Another series relates to HIV-1. The settings on record: cited from earlier work.

Like-named read-outs stand apart in the source and are kept apart here.

On to `C[C@@H]1CCO[C@H]2Cn3cc(C(=O)NCc4ccc(F)cc4F)c(=O)c(O)c3C(=O)N12` [dolutegravir], for which the values for the concentration at 6 h in series [1] (those with pyrimethamine exposure) and in series [1] (those without pyrimethamine exposure) were 11.7 ng/mL and 10.1 ng/mL, respectively.

As to `C/C=C1\NC(=O)[C@H]2CSSCC/C=C/[C@H](CC(=O)N[C@H](C(C)C)C(=O)N2)OC(=O)[C@H](C(C)C)NC1=O` [romidepsin], the “Effect on HIV-1 transcription” value with HIV-1 (additional pharmacodynamics studies) is “no significant effect”. Also, the “Increase in CA US HIV-1 RNA” value with HIV-1 (initial studies) was “approximately threefold”.

As for `O=C(CCCCCCC(=O)Nc1ccccc1)NO` [vorinostat], in the series on HIV-1 (at time points during vorinostat), the “Mean fold increase in CA US HIV-1 RNA” value is on record as 2.6 fold. For the same compound, the HIV-1 reactivation entry with HIV-1 (combined with a T cell-inducing HIV-1 vaccine in PLWH who initiated cART during acute HIV-1) is given as “No reactivation”. Further, the “Fold change in CA US HIV-1 RNA” value in the series on HIV-1 (vorinostat treatment in postmenopausal women) is 1.5 fold.

The values are drawn from paper PMC10017042 (Science Advances, 2023).
